Tested on: panel of breast cancer cell lines
Assay: Compound A with targeted agents and chemotherapies, 72-hour in vitro proliferation assays
Type: cell-based
Conditions: compound A × partner, 72-hour proliferation

SMILES: O=C(c1cc(Cc2n[nH]c(=O)c3ccccc23)ccc1F)N1CCN(C(=O)C2CC2)CC1 [Olaparib]
- Best CI (AU565 cell line): 0.75
- Bliss Volume (AU565 cell line): 2.11
- HSA volume (AU565 cell line): −1.92
- Loewe Volume (AU565 cell line): 0.98
- Synergy Score (AU565 cell line): 2.27
- Best CI (BT-20 cell line): 0.88
- Bliss Volume (BT-20 cell line): 0.80
- HSA volume (BT-20 cell line): 0.38
- Loewe Volume (BT-20 cell line): 0.63
- Synergy Score (BT-20 cell line): 4.78
- Best CI (CAL-51 cell line): 0.55
- Bliss Volume (CAL-51 cell line): 1.50
- HSA volume (CAL-51 cell line): 1.03
- Loewe Volume (CAL-51 cell line): 2.21
- Synergy Score (CAL-51 cell line): 1.89
- Best CI (CAL-85-1 cell line): 0.67
- Bliss Volume (CAL-85-1 cell line): 4.52
- HSA volume (CAL-85-1 cell line): 5.66
- Loewe Volume (CAL-85-1 cell line): 6.67
- Synergy Score (CAL-85-1 cell line): 5.10
- Best CI (CAL-120 cell line): 0.85
- Bliss Volume (CAL-120 cell line): 3.31
- HSA volume (CAL-120 cell line): −3.93
- Loewe Volume (CAL-120 cell line): −3.49
- Synergy Score (CAL-120 cell line): 0.11
- Best CI (CAL-148 cell line): 0.27
- Bliss Volume (CAL-148 cell line): 3.34
- HSA volume (CAL-148 cell line): 5.39
- Loewe Volume (CAL-148 cell line): 5.40
- Synergy Score (CAL-148 cell line): 9.33
- Best CI (CAMA-1 cell line): 1.12
- Bliss Volume (CAMA-1 cell line): 5.62
- HSA volume (CAMA-1 cell line): 2.59
- Loewe Volume (CAMA-1 cell line): 3.95
- Synergy Score (CAMA-1 cell line): 4.78
- Best CI (DU-4475 cell line): 1.00
- Bliss Volume (DU-4475 cell line): 7.40
- HSA volume (DU-4475 cell line): 5.68
- Loewe Volume (DU-4475 cell line): 5.80
- Synergy Score (DU-4475 cell line): 4.61
- Best CI (EVSA-T cell line): 1.17
- Bliss Volume (EVSA-T cell line): 6.05
- HSA volume (EVSA-T cell line): 3.16
- Loewe Volume (EVSA-T cell line): 3.21
- Synergy Score (EVSA-T cell line): 4.47
- Best CI (HCC38): 0.72
- Bliss Volume (HCC38): 6.78
- HSA volume (HCC38): 7.48
- Loewe Volume (HCC38): 7.01
- Synergy Score (HCC38): 8.69
- Best CI (HCC70): 0.94
- Bliss Volume (HCC70): 6.93
- HSA volume (HCC70): 6.07
- Loewe Volume (HCC70): 6.54
- Synergy Score (HCC70): 12.18
- Best CI (HCC1143): 0.24
- Bliss Volume (HCC1143): 4.87
- HSA volume (HCC1143): 3.84
- Loewe Volume (HCC1143): 3.62
- Synergy Score (HCC1143): 4.20
- Best CI (HCC1569): 0.84
- Bliss Volume (HCC1569): 7.47
- HSA volume (HCC1569): 5.26
- Loewe Volume (HCC1569): 8.00
- Synergy Score (HCC1569): 4.98
- Best CI (HCC1806): 0.21
- Bliss Volume (HCC1806): 7.25
- HSA volume (HCC1806): 8.26
- Loewe Volume (HCC1806): 8.49
- Synergy Score (HCC1806): 7.73
- Best CI (HCC1937): 0.63
- Bliss Volume (HCC1937): 2.27
- HSA volume (HCC1937): −1.83
- Loewe Volume (HCC1937): 3.06
- Synergy Score (HCC1937): 1.77
- Best CI (HCC1954): 0.92
- Bliss Volume (HCC1954): 1.68
- HSA volume (HCC1954): 0.48
- Loewe Volume (HCC1954): 1.64
- Synergy Score (HCC1954): 4.49
- Best CI (HCC2218): 0.88
- Bliss Volume (HCC2218): −1.34
- HSA volume (HCC2218): −1.12
- Loewe Volume (HCC2218): −1.71
- Synergy Score (HCC2218): 2.66
- Best CI (HDQ-P1): 0.51
- Bliss Volume (HDQ-P1): 3.81
- HSA volume (HDQ-P1): −0.38
- Loewe Volume (HDQ-P1): 3.65
- Synergy Score (HDQ-P1): 1.22
- Best CI (HMC-1-8): 0.78
- Bliss Volume (HMC-1-8): 10.54
- HSA volume (HMC-1-8): 5.78
- Loewe Volume (HMC-1-8): 6.22
- Synergy Score (HMC-1-8): 10.86
- Best CI (JIMT-1): 0.59
- Bliss Volume (JIMT-1): −1.42
- HSA volume (JIMT-1): −0.34
- Loewe Volume (JIMT-1): −1.35
- Synergy Score (JIMT-1): 0.61
- HSA volume (KPL-1): 1.49
